Molecules are shown by their SMILES. In brackets after ≈: the same amount, converted by molar mass.

One may read the MIC as the lowest concentration that inhibits growth of the organism.

The subject of series [1] is Staphylococcus aureus. The experiment in a line: Minimum Inhibitory Concentration against Staphylococcus aureus SR-3637 (MRSA) was determined. Type of series: functional.
The subject of series [2] is Enterococcus faecium. Kind of series: Minimum Inhibitory Concentration against Enterococcus faecium SR-7917 (VRE) was determined. Type of series: functional.
In series [3] the test system is Enterococcus faecalis. Kind of series: Minimum Inhibitory Concentration against Enterococcus faecalis SR-7914 (VRE) was determined. Type of series: functional.
The nature of series [4]: Solubility in water was determined. Type of series: physicochemical.

Regarding `CN[C@H](CC(C)C)C(=O)N[C@H]1C(=O)N[C@@H](CC(N)=O)C(=O)N[C@H]2C(=O)NC3C(=O)NC(C(=O)N[C@@H](C(=O)O)c4cc(O)cc(O)c4-c4cc3ccc4O)[C@H](O[C@H]3C[C@](C)(NCc4ccc(-c5ccc(Cl)cc5)cc4)[C@@H](O)[C@H](C)O3)c3ccc(c(Cl)c3)Oc3cc2cc(c3O[C@@H]2O[C@H](CO)[C@@H](O)[C@H](O)[C@H]2O)Oc2ccc(cc2Cl)[C@H]1O` (some centres not stated), the MIC in series [1] worked out at 0.1 µg/mL (≈ 0.0606 µM); in series [2] it was 6.25 µg/mL (≈ 3.79 µM); in series [3] it was 12.5 µg/mL (≈ 7.58 µM).

On to `CN[C@H](CC(C)C)C(=O)N[C@H]1C(=O)N[C@@H](CC(N)=O)C(=O)N[C@H]2C(=O)NC3C(=O)NC(C(=O)N[C@@H](C(=O)O)c4cc(O)cc(O)c4-c4cc3ccc4O)[C@H](O[C@H]3C[C@](C)(NCc4ccc(/C=C/c5ccc(Cl)cc5)cc4)[C@@H](O)[C@H](C)O3)c3ccc(c(Cl)c3)Oc3cc2cc(c3O[C@@H]2O[C@H](CO)[C@@H](O)[C@H](O)[C@H]2O)Oc2ccc(cc2Cl)[C@H]1O` (some centres not stated), for which the MIC in series [1] stood at 0.2 µg/mL (≈ 0.119 µM); in series [2] it was 6.25 µg/mL (≈ 3.73 µM); in series [3] it was 6.25 µg/mL (≈ 3.73 µM). This compound also showed a Solubility in series [4] below 1%.

Take `CCCCCCCCCCCCCN[C@@]1(C)C[C@H](O[C@@H]2c3ccc(c(Cl)c3)Oc3cc4cc(c3O[C@@H]3O[C@H](CO)[C@@H](O)[C@H](O)[C@H]3O)Oc3ccc(cc3Cl)[C@@H](O)[C@@H](NC(=O)[C@@H](CC(C)C)NC)C(=O)N[C@@H](CC(N)=O)C(=O)N[C@H]4C(=O)NC3C(=O)NC2C(=O)N[C@@H](C(=O)O)c2cc(O)cc(O)c2-c2cc3ccc2O)O[C@@H](C)[C@@H]1O` (some centres not stated): the MIC in series [1] worked out at 0.2 µg/mL (≈ 0.123 µM); in series [2], 6.25 µg/mL (≈ 3.83 µM); in series [3] it was 12.5 µg/mL (≈ 7.66 µM).

Take `CN[C@H](CC(C)C)C(=O)N[C@H]1C(=O)N[C@@H](CC(N)=O)C(=O)N[C@H]2C(=O)NC3C(=O)NC(C(=O)N[C@@H](C(=O)O)c4cc(O)cc(O)c4-c4cc3ccc4O)[C@H](O[C@H]3C[C@](C)(NCc4ccc(-c5ccc(-c6ccccc6)cc5)cc4)[C@@H](O)[C@H](C)O3)c3ccc(c(Cl)c3)Oc3cc2cc(c3O[C@@H]2O[C@H](CO)[C@@H](O)[C@H](O)[C@H]2O)Oc2ccc(cc2Cl)[C@H]1O` (some centres not stated): the MIC in series [1] came out at 0.39 µg/mL (≈ 0.231 µM); in series [2], 3.13 µg/mL (≈ 1.85 µM); in series [3], 12.5 µg/mL (≈ 7.39 µM).

For the compound `CN[C@H](CC(C)C)C(=O)N[C@H]1C(=O)N[C@@H](CC(N)=O)C(=O)N[C@H]2C(=O)N[C@H]3C(=O)N[C@H](C(=O)N[C@H](C(=O)O)c4cc(O)cc(O)c4-c4cc3ccc4O)[C@H](O)c3ccc(c(Cl)c3)Oc3cc2cc(c3O[C@@H]2O[C@H](CO)[C@@H](O)[C@H](O)[C@H]2O[C@H]2C[C@](C)(N)[C@H](O)[C@H](C)O2)Oc2ccc(cc2Cl)[C@H]1O` [VANCOMYCIN], the values for the MIC in series [1], in series [2] and in series [3] were 1.56 µg/mL (≈ 1.08 µM), above 100 µg/mL and above 100 µg/mL, respectively. In addition, the Solubility in series [4] was above 10%.

As to `CCCCCCCOc1ccc(CN[C@@]2(C)C[C@H](O[C@@H]3c4ccc(c(Cl)c4)Oc4cc5cc(c4O[C@@H]4O[C@H](CO)[C@@H](O)[C@H](O)[C@H]4O)Oc4ccc(cc4Cl)[C@@H](O)[C@@H](NC(=O)[C@@H](CC(C)C)NC)C(=O)N[C@@H](CC(N)=O)C(=O)N[C@H]5C(=O)NC4C(=O)NC3C(=O)N[C@@H](C(=O)O)c3cc(O)cc(O)c3-c3cc4ccc3O)O[C@@H](C)[C@@H]2O)cc1` (some centres not stated), the MIC is 0.39 µg/mL (≈ 0.236 µM) in series [1], 12.5 µg/mL (≈ 7.56 µM) in series [2] and 25 µg/mL (≈ 15.1 µM) in series [3].

For `CN[C@H](CC(C)C)C(=O)N[C@H]1C(=O)N[C@@H](CC(N)=O)C(=O)N[C@H]2C(=O)NC3C(=O)NC(C(=O)N[C@@H](C(=O)O)c4cc(O)cc(O)c4-c4cc3ccc4O)[C@H](O[C@H]3C[C@](C)(N)[C@@H](O)[C@H](C)O3)c3ccc(c(Cl)c3)Oc3cc2cc(c3O[C@@H]2O[C@H](CO)[C@@H](O)[C@H](O)[C@H]2O)Oc2ccc(cc2Cl)[C@H]1O` (some centres not stated), the minimum inhibitory concentration (MIC) in series [1] was 0.78 µg/mL (≈ 0.538 µM); in series [2] it was above 100 µg/mL; in series [3], above 100 µg/mL. In series [4], this compound gave a Solubility above 10%.

In the case of `CN[C@H](CC(C)C)C(=O)N[C@H]1C(=O)N[C@@H](CC(N)=O)C(=O)N[C@H]2C(=O)NC3C(=O)NC(C(=O)N[C@@H](C(=O)O)c4cc(O)cc(O)c4-c4cc3ccc4O)[C@H](O[C@H]3C[C@](C)(NCc4ccc(C#Cc5ccc(Cl)cc5)cc4)[C@@H](O)[C@H](C)O3)c3ccc(c(Cl)c3)Oc3cc2cc(c3O[C@@H]2O[C@H](CO)[C@@H](O)[C@H](O)[C@H]2O)Oc2ccc(cc2Cl)[C@H]1O` (some centres not stated), the MIC in series [1] was 0.2 µg/mL (≈ 0.119 µM); in series [2], 6.25 µg/mL (≈ 3.73 µM); in series [3], 12.5 µg/mL (≈ 7.47 µM).
